Assay results reported in ChEMBL document CHEMBL4477272, “Toward chelerythrine optimization: Analogues designed by molecular simplification exhibit selective growth inhibition in non-small-cell lung cancer cells” (Bioorg Med Chem, 2016).
Calls of active or inactive are those of the source. The rule behind the calls is not given here.

Legend:
A549 [1] = experiment: Cytotoxicity against human A549 cells assessed as reduction in cell viability after 24 hrs by MTT assay; type: functional, cell-based; conditions: A549, 24 h
HUVEC = experiment: Cytotoxicity against HUVEC assessed as reduction in cell viability after 24 hrs by MTT assay; type: cell-based; conditions: Homo sapiens
[2] = Cytotoxicity against human LL24 cells assessed as reduction in cell viability after 24 hrs by MTT assay; type: cell-based; conditions: LL24, 24 h
NCI-H1299 [3] = experiment: Cytotoxicity against human NCI-H1299 cells assessed as reduction in cell viability after 24 hrs by MTT assay; type: functional, cell-based; conditions: NCI-H1299, 24 h
NCI-H292 = experiment: Cytotoxicity against human NCI-H292 cells assessed as reduction in cell viability after 24 hrs by MTT assay; type: functional, cell-based; conditions: NCI-H292, 24 h
NCI-H460 = experiment: Cytotoxicity against human NCI-H460 cells assessed as reduction in cell viability after 24 hrs by MTT assay; type: functional, cell-based; conditions: NCI-H460, 24 h
A549 [4] = experiment: Cell cycle arrest in human A549 cells assessed as accumulation at G0/G1 phase after 24 hrs by propidium iodide staining based flow cytometry; type: functional
A549 [5] = experiment: Cytostatic activity against human A549 cells assessed as inhibition of colony formation after 24 hrs measured after 10 days by crystal violet staining based method; type: functional, cell-based
[6] = Selectivity index, ratio of IC50 for human LL24 cells to IC50 for human A549 cells
NCI-H1299 [7] = experiment: Cell cycle arrest in human NCI-H1299 cells assessed as accumulation at S phase at 50 uM after 24 hrs by propidium iodide staining based flow cytometry (reference value: 7.8%); type: functional
A549 [8] = experiment: Cell cycle arrest in human A549 cells assessed as accumulation at G0/G1 phase at 75 uM after 24 hrs by propidium iodide staining based flow cytometry (reference value: 33.4%); type: functional
NCI-H1299 [9] = experiment: Cell cycle arrest in human NCI-H1299 cells assessed as accumulation at G0/G1 phase at 50 uM after 24 hrs by propidium iodide staining based flow cytometry (reference value: 39%); type: functional
NCI-H1299 [10] = experiment: Cell cycle arrest in human NCI-H1299 cells assessed as accumulation at G0/G1 phase at 100 uM after 24 hrs by propidium iodide staining based flow cytometry (reference value: 39%); type: functional
A549 [11] = experiment: Cell cycle arrest in human A549 cells assessed as accumulation at G0/G1 phase at 100 uM after 24 hrs by propidium iodide staining based flow cytometry (reference value: 33.4%); type: functional
NCI-H1299 [12] = experiment: Cytostatic activity against human NCI-H1299 cells assessed as inhibition of colony formation after 24 hrs measured after 10 days by crystal violet staining based method; type: functional, cell-based
NCI-H1299 [13] = experiment: Cell cycle arrest in human NCI-H1299 cells assessed as accumulation at S phase at 75 uM after 24 hrs by propidium iodide staining based flow cytometry (reference value: 7.8%); type: functional
[14] = Selectivity index, ratio of IC50 for HUVEC to IC50 for human A549 cells; type: toxicity; conditions: HUVEC versus A549 cells, read-out: Ratio IC50
A549 [15] = experiment: Cell cycle arrest in human A549 cells assessed as decrease in G2/M phase at 50 to 100 uM after 24 hrs by propidium iodide staining based flow cytometry; type: functional
NCI-H1299 [16] = experiment: Cell cycle arrest in human NCI-H1299 cells assessed as accumulation at G0/G1 phase after 24 hrs by propidium iodide staining based flow cytometry; type: functional
A549 [17] = experiment: Cell cycle arrest in human A549 cells assessed as accumulation at G0/G1 phase at 50 uM after 24 hrs by propidium iodide staining based flow cytometry (reference value: 33.4%); type: functional
NCI-H1299 [18] = experiment: Cell cycle arrest in human NCI-H1299 cells assessed as accumulation at S phase at 100 uM after 24 hrs by propidium iodide staining based flow cytometry (reference value: 7.8%); type: functional
A549 [19] = experiment: Cell cycle arrest in human A549 cells assessed as decrease in S phase at 50 to 100 uM after 24 hrs by propidium iodide staining based flow cytometry; type: functional
NCI-H1299 [20] = experiment: Cell cycle arrest in human NCI-H1299 cells assessed as accumulation at G0/G1 phase at 75 uM after 24 hrs by propidium iodide staining based flow cytometry (reference value: 39%); type: functional
[21] = Selectivity index, ratio of IC50 for HUVEC to IC50 for human NCI-H1299 cells; type: toxicity; conditions: HUVEC versus NCI-H1299 cells, read-out: Ratio IC50
[22] = Selectivity index, ratio of IC50 for human LL24 cells to IC50 for human NCI-H1299 cells
[23] = Selectivity index, ratio of IC50 for human LL24 cells to IC50 for human NCI-H460 cells
[24] = Selectivity index, ratio of IC50 for HUVEC to IC50 for human NCI-H292 cells
[25] = Selectivity index, ratio of IC50 for HUVEC to IC50 for human NCI-H460 cells; type: toxicity; conditions: HUVEC versus NCI-H460 cells, read-out: Ratio IC50
[26] = Selectivity index, ratio of IC50 for human LL24 cells to IC50 for human NCI-H292 cells

SMILES | IC50 (A549 [1]) [µM] | IC50 (HUVEC) [µM] | IC50 [2] [µM] | IC50 (NCI-H1299 [3]) [µM] | IC50 (NCI-H292) [µM] | IC50 (NCI-H460) [µM] | Ratio IC50 [6] | selectivity ratio [14] | selectivity ratio [21] | Ratio IC50 [22] | also measured
COc1cc(CN(C)Cc2ccc3c(c2)OCO3)cc(OC)c1OC | > 200 | > 200 | > 200 | > 200 | > 200 | > 200 |  |  |  |  | 
COc1ccc(CN(C)Cc2ccc3c(c2)OCO3)cc1OC | > 200 | > 200 | > 200 | > 200 | > 200 | > 200 |  |  |  |  | 
Cl.Oc1ccc(CNCc2ccc3c(c2)OCO3)cc1O | 112 | > 200 | > 200 | > 200 | > 200 | > 200 | >1.78 | > 1.78 |  |  | Activity (A549 [4]): Dose-dependent effect; inhibition (A549 [5]): Dose-dependent effect; Activity (NCI-H1299 [7]): 26.8%; Activity (A549 [8]): 49.6%; Activity (NCI-H1299 [9]): 53.5%; Activity (NCI-H1299 [10]): 55.8%; Activity (A549 [11]): 54.3%; inhibition (NCI-H1299 [12]): Dose-dependent effect; Activity (NCI-H1299 [13]): 20.4%; Activity (A549 [15]): Active; Activity (NCI-H1299 [16]): Dose-dependent effect; Activity (A549 [17]): 45.9%; Activity (NCI-H1299 [18]): 17.7%; Activity (A549 [19]): Active; Activity (NCI-H1299 [20]): 65%
COc1ccc(CNCc2ccc3c(c2)OCO3)cc1O | > 200 | > 200 | > 200 | > 200 | > 200 | > 200 |  |  |  |  | 
COc1ccc(CNCc2ccc3c(c2)OCO3)cc1OC.Cl | 118 | > 200 | > 200 | 92.3 | > 200 | > 200 | >1.69 | > 1.69 | > 2.17 | >2.17 | 
Cl.c1ccc(CNCc2ccc3c(c2)OCO3)cc1 | > 200 | > 200 | > 200 | 67.2 | > 200 | > 200 |  |  | > 2.98 | >2.98 | 
COc1ccc(CN(C)Cc2ccc3c(c2)OCO3)cc1.Cl | > 200 | > 200 | > 200 | 76.4 | > 200 | > 200 |  |  | > 2.62 | >2.62 | 
COc1ccc2c(c[n+](C)c3c4cc5c(cc4ccc23)OCO5)c1OC [CHELERYTHRINE] | 7.73 | 4.93 | 3.73 | 4.28 | 4.96 | 5.14 | 0.48 | 0.64 | 1.15 | 0.87 | Ratio IC50 [23]: 0.73; Ratio IC50 [24]: 0.99; selectivity ratio [25]: 0.96; Ratio IC50 [26]: 0.75
COc1ccc(CNCc2ccc3c(c2)OCO3)cc1.Cl | 124 | > 200 | > 200 | 73.7 | 153 | > 200 | >1.61 | > 1.61 | > 2.71 | >2.71 | Ratio IC50 [24]: >1.31; Ratio IC50 [26]: >1.31
COc1cc(CNCc2ccc3c(c2)OCO3)cc(OC)c1OC.Cl | > 200 | > 200 | > 200 | 107 | > 200 | > 200 |  |  | > 1.88 | >1.88 | 
CN(Cc1ccccc1)Cc1ccc2c(c1)OCO2.Cl | > 200 | > 200 | > 200 | 91.2 | > 200 | > 200 |  |  | > 2.19 | >2.19 | 
